These results are taken from patent publication US20140234227A1, “FOAM FORMULATIONS” (OTIC PHARMA LTD, priority 2011, published 2014).

Common to all, as to assay: Antibiotics-Microbial Assay - Zone of Growth Inhibition
Holding throughout (type): cell-based

One assay has as its system E. Coli (ATCC No. 8739). To be noted: LB-agar, 24 hrs at 37° C. How it is done: (§1) In this assay the diameter (halo) of bacterial growth inhibition around filters soaked with a test item was measured and compared to a standard solution of antibiotic. For this end, sterile Microbiological cotton swabs were soaked with cultures of E. Coli (ATCC No. 8739), S. aureus (ATCC No. 6538) or of Pseudomonas aeruginosa (ATCC No. 9027) and evenly spread on top of LB-agar plates. Filters soaked with the tested formulation were placed on top of the plates and the plates were further incubated for 24 hrs. The diameter (halo) of growth inhibition around each filter was measured after 24 hrs of incubation at 37° C. A solution that contained the same concentration of Ciprofloxacin Hydrochloride (0.35%) as in the formulation tested was used as a control.

The subject of assay [1] is Pseudomonas aeruginosa (ATCC No. 9027). Particulars: LB-agar, 24 hrs at 37° C. The method, then:
as §1

The subject of assay [2] is S. aureus (ATCC No. 6538). To be noted: Staph. Aureus, LB-agar, 24 hrs at 37° C. The method, then: as §1

The structures appear in SMILES notation. Counter-ions that a name gives are not always drawn.

Turning to `O=C(O)c1cn(C2CC2)c2cc(N3CCNCC3)c(F)cc2c1=O` [Ciprofloxacin HCl solution (0.35%), monohydrochloride monohydrate salt of 1-cyclopropyl-6-fluoro-1,4-dihydro-4-oxo-7-(1-piperazinyl)-3-quinolinecarboxylic acid], the “diameter of growth inhibition” value is on record as 3.6 cm in the assay with E. Coli (ATCC No. 8739), 4.85 cm in assay [1] and 4.7 cm in assay [2].
